In ChEMBL document CHEMBL3991601, “The target landscape of clinical kinase drugs” (Science, 2017):
Active and inactive are the calls of the source. Cut-off read from the data, not from the text of the source, for most assays here: actives have a measured Kd and inactives only a lower limit.

Tests used:
[1] = target: Serine/threonine-protein kinase/endoribonuclease IRE1 (Homo sapiens, UniProt O75460)
Focal adhesion kinase 1 = Focal adhesion kinase 1 (Homo sapiens, UniProt Q05397)
[2] = target: T1, Dual specificity mitogen-activated protein kinase kinase 5 (Homo sapiens, UniProt Q13163)
T1 sequence (Q13163 whole entry): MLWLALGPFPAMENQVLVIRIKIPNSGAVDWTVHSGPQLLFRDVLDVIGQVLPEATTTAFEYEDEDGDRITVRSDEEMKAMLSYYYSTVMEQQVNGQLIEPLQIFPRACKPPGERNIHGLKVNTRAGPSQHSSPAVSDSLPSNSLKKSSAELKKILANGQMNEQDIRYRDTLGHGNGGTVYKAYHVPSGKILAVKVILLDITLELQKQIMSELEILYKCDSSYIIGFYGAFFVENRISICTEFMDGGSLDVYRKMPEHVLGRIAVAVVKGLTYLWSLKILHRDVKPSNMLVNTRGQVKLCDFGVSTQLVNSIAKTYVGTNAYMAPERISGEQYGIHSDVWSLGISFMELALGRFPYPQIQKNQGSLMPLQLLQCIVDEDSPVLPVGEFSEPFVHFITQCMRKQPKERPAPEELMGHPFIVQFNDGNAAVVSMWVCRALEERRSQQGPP

[3] = target: T2, Glycogen phosphorylase, brain form (Homo sapiens, UniProt P11216)
T2 sequence (P11216 whole entry): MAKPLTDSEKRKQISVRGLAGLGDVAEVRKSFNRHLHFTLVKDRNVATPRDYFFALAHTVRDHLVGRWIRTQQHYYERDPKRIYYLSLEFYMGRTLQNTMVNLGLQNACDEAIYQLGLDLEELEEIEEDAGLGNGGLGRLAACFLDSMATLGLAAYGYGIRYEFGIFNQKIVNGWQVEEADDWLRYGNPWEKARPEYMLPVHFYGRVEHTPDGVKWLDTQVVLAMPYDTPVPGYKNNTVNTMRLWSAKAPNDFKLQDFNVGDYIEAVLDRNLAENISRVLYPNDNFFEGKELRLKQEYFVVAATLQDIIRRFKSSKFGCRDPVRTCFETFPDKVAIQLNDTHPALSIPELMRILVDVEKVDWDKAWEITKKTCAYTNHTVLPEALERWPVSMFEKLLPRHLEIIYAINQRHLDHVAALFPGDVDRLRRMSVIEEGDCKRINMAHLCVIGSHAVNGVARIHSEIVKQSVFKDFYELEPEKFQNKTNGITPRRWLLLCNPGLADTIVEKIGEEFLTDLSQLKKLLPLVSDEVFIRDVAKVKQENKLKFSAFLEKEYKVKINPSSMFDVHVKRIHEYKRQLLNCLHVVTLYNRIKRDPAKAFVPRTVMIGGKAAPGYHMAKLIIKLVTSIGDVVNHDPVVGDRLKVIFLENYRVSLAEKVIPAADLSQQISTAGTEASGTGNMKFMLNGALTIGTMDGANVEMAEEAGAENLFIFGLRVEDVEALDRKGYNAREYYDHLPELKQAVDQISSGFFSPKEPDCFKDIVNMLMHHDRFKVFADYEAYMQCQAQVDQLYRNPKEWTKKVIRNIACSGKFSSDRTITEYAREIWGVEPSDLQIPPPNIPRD

[4] = target: Serine/threonine-protein kinase SIK3 (Homo sapiens, UniProt Q9Y2K2)
[5] = target: T3, MAP/microtubule affinity-regulating kinase 4 (Homo sapiens, UniProt Q96L34)
T3 sequence (Q96L34 whole entry): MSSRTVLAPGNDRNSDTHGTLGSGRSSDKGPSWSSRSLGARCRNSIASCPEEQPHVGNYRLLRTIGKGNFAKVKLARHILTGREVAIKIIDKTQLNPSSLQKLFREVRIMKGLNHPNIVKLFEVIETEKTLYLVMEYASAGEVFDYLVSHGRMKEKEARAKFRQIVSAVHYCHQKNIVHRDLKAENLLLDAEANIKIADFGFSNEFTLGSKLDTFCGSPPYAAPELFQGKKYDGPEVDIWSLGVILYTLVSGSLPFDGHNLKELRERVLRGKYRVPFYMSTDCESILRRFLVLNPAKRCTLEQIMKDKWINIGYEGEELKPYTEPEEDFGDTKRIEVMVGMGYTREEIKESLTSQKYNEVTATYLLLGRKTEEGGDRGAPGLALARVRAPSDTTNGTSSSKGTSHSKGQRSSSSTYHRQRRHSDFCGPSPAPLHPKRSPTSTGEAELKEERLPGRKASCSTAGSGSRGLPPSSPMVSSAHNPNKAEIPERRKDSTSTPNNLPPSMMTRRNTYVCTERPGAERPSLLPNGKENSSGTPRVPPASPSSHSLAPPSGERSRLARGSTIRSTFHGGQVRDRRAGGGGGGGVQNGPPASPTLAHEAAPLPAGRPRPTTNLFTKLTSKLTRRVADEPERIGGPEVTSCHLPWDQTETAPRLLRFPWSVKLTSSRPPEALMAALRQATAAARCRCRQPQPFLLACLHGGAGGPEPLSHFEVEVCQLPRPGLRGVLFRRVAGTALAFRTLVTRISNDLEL

Insulin receptor = Insulin receptor (Homo sapiens, UniProt P06213)
[6] = target: T4, Mitogen-activated protein kinase 15 (Homo sapiens, UniProt Q8TD08)
T4 sequence (Q8TD08 whole entry): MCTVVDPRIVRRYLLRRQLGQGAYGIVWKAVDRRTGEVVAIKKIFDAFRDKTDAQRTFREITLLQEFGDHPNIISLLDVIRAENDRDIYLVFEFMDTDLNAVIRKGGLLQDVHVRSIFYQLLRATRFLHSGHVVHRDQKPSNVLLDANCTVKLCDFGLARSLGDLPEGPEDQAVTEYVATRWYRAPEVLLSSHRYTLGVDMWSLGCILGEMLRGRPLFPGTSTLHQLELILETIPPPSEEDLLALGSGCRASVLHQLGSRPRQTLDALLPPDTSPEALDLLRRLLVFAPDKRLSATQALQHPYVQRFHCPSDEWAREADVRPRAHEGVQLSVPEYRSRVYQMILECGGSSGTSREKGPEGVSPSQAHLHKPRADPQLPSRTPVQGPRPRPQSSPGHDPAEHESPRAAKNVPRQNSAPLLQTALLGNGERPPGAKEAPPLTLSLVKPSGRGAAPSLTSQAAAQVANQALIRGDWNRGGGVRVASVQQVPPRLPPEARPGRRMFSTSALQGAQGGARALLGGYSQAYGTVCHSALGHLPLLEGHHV

[7] = target: Serine/threonine-protein kinase/endoribonuclease IRE2 (Homo sapiens, UniProt Q76MJ5)
[8] = target: Serine/threonine-protein kinase SIK2 (Homo sapiens, UniProt Q9H0K1)
[9] = target: Tyrosine-protein kinase CSK (Homo sapiens, UniProt P41240)
Note: in the data inactive means no Kd found up to 30 µM.

Sequence of Insulin receptor (P06213 28-758 limits assumed): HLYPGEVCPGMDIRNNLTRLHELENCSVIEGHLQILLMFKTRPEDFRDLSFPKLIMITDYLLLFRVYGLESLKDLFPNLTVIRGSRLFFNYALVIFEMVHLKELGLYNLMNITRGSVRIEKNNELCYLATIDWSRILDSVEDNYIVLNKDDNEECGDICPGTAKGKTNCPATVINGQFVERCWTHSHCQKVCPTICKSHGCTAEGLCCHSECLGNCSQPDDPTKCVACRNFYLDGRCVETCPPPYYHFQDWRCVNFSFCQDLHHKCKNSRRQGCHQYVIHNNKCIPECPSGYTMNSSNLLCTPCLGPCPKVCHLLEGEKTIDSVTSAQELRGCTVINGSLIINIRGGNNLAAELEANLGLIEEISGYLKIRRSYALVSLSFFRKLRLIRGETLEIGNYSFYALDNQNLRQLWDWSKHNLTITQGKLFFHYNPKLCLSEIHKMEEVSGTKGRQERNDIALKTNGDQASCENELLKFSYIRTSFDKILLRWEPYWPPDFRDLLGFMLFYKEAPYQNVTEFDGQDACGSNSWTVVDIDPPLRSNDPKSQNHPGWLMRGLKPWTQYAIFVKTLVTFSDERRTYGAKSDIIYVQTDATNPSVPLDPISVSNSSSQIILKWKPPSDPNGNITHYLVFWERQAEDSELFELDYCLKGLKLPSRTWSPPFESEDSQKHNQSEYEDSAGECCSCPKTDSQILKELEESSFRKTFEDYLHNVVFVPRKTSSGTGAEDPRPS
Sequence of Insulin receptor (P06213 763-1382 limits assumed): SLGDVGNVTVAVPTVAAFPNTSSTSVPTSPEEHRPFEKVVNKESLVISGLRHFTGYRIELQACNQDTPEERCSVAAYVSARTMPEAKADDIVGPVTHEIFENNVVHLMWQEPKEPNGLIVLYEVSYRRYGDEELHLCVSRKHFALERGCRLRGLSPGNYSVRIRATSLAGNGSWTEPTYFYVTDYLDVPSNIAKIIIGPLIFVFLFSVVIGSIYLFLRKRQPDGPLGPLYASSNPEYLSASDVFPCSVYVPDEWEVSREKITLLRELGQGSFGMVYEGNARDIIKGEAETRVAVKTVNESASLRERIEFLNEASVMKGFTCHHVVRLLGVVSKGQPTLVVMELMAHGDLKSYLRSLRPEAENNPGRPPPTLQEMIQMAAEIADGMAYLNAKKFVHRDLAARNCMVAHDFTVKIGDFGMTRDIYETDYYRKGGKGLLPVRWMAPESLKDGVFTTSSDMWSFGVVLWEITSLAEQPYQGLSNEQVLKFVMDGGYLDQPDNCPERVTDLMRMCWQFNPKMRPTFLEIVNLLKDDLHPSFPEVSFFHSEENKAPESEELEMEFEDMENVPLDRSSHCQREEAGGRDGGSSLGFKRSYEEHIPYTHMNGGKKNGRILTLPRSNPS
Sequence of Serine/threonine-protein kinase SIK3 (Q9Y2K2 whole entry): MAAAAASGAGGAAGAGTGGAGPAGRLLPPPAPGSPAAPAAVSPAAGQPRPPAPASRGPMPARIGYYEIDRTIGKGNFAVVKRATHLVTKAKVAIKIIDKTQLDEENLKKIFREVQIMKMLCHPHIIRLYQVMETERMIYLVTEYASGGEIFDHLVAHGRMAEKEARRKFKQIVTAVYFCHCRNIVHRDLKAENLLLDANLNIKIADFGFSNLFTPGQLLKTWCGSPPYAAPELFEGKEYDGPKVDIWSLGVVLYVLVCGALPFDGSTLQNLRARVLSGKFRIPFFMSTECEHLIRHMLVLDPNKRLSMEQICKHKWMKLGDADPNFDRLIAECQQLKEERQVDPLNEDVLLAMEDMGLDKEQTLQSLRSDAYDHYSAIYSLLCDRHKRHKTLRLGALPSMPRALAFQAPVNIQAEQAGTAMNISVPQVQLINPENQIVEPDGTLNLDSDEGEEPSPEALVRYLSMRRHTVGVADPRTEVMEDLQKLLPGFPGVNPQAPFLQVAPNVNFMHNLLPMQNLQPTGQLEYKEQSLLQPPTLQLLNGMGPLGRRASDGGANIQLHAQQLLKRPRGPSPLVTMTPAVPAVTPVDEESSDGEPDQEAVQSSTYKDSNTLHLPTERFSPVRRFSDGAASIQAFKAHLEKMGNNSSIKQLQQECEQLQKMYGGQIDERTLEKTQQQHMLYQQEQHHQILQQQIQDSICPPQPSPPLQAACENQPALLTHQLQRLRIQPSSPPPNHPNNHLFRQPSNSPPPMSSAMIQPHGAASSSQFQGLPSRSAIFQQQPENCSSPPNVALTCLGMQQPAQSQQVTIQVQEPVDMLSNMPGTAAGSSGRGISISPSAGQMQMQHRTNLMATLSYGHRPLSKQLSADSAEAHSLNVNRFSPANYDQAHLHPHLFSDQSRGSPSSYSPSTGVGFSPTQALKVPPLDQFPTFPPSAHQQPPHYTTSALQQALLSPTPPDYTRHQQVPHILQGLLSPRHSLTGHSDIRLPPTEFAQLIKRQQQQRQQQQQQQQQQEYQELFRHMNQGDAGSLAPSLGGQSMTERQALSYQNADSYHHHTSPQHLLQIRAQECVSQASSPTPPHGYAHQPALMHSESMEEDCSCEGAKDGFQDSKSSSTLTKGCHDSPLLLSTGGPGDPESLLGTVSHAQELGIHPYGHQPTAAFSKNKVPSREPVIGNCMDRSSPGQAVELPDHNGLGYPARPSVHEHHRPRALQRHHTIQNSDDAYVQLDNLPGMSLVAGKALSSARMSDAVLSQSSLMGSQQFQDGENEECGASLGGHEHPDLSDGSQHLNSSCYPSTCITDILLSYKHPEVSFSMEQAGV
Sequence of Serine/threonine-protein kinase/endoribonuclease IRE2 (Q76MJ5 whole entry): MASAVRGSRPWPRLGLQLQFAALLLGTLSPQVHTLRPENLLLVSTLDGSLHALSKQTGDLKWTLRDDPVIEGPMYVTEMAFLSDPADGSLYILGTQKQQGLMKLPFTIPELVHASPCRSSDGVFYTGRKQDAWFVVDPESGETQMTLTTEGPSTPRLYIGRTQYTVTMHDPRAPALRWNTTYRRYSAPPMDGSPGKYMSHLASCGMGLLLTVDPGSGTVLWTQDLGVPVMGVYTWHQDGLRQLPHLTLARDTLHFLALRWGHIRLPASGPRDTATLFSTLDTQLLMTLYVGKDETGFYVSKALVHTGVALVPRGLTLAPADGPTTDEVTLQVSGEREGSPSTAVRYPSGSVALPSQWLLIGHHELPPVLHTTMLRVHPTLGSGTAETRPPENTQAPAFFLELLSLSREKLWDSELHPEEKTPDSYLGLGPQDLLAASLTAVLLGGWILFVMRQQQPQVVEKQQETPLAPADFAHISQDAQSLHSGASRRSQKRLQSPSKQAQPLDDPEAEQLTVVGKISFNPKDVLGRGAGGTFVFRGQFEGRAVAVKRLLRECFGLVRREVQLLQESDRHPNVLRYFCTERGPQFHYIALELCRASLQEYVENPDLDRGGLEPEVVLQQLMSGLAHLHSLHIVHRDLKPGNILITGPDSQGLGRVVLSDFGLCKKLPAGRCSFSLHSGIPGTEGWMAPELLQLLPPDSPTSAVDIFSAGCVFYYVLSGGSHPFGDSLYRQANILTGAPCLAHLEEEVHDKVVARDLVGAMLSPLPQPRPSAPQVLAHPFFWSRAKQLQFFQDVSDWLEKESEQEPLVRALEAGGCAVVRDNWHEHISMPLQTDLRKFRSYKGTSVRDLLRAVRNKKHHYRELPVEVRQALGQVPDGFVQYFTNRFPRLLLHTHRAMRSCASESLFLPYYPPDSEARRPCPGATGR
Sequence of Serine/threonine-protein kinase/endoribonuclease IRE1 (O75460 whole entry): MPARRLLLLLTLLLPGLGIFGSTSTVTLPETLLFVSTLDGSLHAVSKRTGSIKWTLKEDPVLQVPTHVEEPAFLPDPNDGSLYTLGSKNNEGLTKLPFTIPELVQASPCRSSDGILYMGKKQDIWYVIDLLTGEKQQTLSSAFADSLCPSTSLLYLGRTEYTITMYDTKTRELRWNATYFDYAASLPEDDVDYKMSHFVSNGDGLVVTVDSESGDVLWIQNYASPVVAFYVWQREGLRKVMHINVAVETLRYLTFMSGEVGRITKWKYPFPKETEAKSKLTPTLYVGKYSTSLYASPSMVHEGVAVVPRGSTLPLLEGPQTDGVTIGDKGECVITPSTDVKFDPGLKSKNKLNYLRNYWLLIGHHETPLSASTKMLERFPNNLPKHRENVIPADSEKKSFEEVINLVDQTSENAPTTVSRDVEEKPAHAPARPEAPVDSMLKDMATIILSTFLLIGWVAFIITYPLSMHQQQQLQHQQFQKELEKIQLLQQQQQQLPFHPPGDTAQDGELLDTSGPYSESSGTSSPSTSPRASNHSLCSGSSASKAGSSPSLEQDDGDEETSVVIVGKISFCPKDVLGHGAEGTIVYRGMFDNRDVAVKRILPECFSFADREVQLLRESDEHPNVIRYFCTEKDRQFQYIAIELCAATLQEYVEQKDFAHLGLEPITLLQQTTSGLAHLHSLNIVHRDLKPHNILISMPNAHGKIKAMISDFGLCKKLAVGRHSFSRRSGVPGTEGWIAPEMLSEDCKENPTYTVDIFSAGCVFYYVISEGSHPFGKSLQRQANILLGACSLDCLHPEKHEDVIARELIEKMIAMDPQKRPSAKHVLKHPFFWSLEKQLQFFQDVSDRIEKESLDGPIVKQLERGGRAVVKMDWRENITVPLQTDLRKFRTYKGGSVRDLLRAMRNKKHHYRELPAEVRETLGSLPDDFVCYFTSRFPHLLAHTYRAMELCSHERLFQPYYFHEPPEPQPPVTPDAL

Kd [1] | Kd (Focal adhesion kinase 1) | Kd [2] | Kd [3] | Kd [4] | Kd [5] | Kd (Insulin receptor) | Kd [7] | Kd [8] | Kd [9] | Compound | Kd [6]
> 30 µM (inactive) | 0.022 µM (active) | > 30 µM (inactive) | > 30 µM (inactive) | > 30 µM (inactive) | > 30 µM (inactive) | 0.144 µM (active) | > 30 µM (inactive) | 1.8 µM (active) | > 30 µM (inactive) | CC(C)c1cc(CNc2nc(Nc3cc(C4CC4)[nH]n3)cc(N3CCN(C)CC3)n2)on1 [XL-228] | > 30 µM (inactive)
> 30 µM (inactive) | > 30 µM (inactive) | > 30 µM (inactive) | > 30 µM (inactive) | 0.071 µM (active) | > 30 µM (inactive) | > 30 µM (inactive) | > 30 µM (inactive) | > 30 µM (inactive) | > 30 µM (inactive) | C[C@@H](N)c1ccc(C(=O)Nc2ccnc3[nH]ccc23)cc1 [Y-39983] | > 30 µM (inactive)
